{
  "source": "patent US6485736B1",
  "about": "“Variable release microcapsules” (priority 2000, dated 2002)",
  "origin": "cited, not measured here",
  "details": "water at 25° C.",
  "data": [
    {"smiles": "II", "values": [
      {"measurement": "solubility", "value": "0.335 g in 1 dm^3 of water"}
    ]}
  ]
}
